Where no end group is shown, it is not given here.
How the values were obtained:
THP-1 cells = assay: Generation of Factor Xa by monocytes; format: cell-based; details: peptides 0.5 mM
Protocol: Factor Xa generation was determined by a modification of the method of Miletich et al. (1978), J. Biol. Chem. 253: 6908-6916. THP-1 cells (ATCC; 3×10^7 /ml) resuspended in RPMI 1640 (Bio Whittaker, Walkersville, Md.) were incubated with 100 μM ADP (Sigma), 2.5 mM CaCl2, 1 or 5 μg/ml Factor X (Hematologic Technologies Inc.) and 0.5 mM peptides at room temperature. After 20 minutes, 100 μl of the reaction mixture was transferred to 37° C. and supplemented with 100 μl of bovine factor VII- and Factor X-deficient plasma (Sigma). Coagulation was initiated by adding 100 μl of 25 mM CaCl2 and the clotting time was determined. Factor Xa procoagulant activity (ng/ml) was calculated by means of a standard curve constructed by serial concentrations of Factor Xa (Hematologic Technologies Inc.) from 50 to 250 ng/ml.

CD11b/CD18 = target: T1, CD11b/CD18 (Homo sapiens, UniProt P05107+P11215); assay: Downmodulation of CD11b/CD18 on macrophages; format: cell-based; details: wells coated with peptides 0.5 mM or mAb IB4 50 μg/ml
T1 construct: endogenous in cells; host or cells: human monocyte-derived macrophages from buffy coats
Protocol: Human monocytes were purified from buffy coats on Percoll gradients and cultured in 12.5% human serum in Teflon beakers. Macrophages were harvested from Teflon beakers after 6-8 days and suspended in HAP buffer. Terasaki wells were coated with 5 μl of peptides (0.5 mM) or anti-CD18 mAb IB4 (50 μg/ml). Control wells were coated with HAP. After 2 hours of incubation at RT, 5 μl of macrophages (5×10^5 /ml HAP) were added and allowed to spread for 45 mins. at 37° C. […] IgM-coated erythrocytes in buffer served as negative control. After washing, the number of erythrocytes bound per 100 leukocytes (adherence index) was quantitated visually under an inverted microscope.

[1] = tested on: rats inoculated intracisternally with Haemophilus influenzae type b lipooligosaccharide; assay: Rat meningitis model (H. influenzae LOS); format: in vivo
Protocol: The experiments were performed according to established protocols (Wispelway et al., 1988, J. Clin. Invest., 82: 1339-1346). Purified Haemophilus influenzae type b strain DL42 lipooligosaccharide (LOS) was prepared for inoculation by sonication for 30 minutes, dilution to the desired concentration (20 ng/50 μl) in normal saline or PBS, and sonication for an additional 15 to 30 minutes just prior to use.
Briefly, anesthetized female Wistar rats were placed under a micromanipulator and inoculated intracisternally with a 25 gauge needle. After removal of 50 μl of CSF (without visible blood contamination), rats were inoculated intracisternally with 50 μl (20 ng) of LOS using a 1 ml syringe with a 25 gauge needle. Ten to fifteen minutes after inoculation with LOS, the rats were treated by intravenous administration of the test substance: a solution of an FHA peptide in PBS, a solution of a control peptide in PBS, or an equal volume of PBS alone.
Three hours after LOS inoculation, 5 μCi of ^125 I-radiolabelled albumin in 50 μl normal saline was administered intravenously. One hour later, CSF was collected via intracisternal puncture and blood samples were collected via intracardiac puncture. CSF leukocytosis was determined by manually counting white blood cells using a hemacytometer, and blood-brain barrier permeability was determined as the percent of radioactivity in whole blood that was present in the CSF. Blood samples were obtained immediately prior to inoculation, immediately prior to treatment, and at 4 hours post-inoculation for determination of peripheral white blood cell concentrations.

Human neutrophils = assay: Binding of 125I-Factor X to neutrophils; details: read-out: IC50 of inhibition of 125I-Factor X binding
Protocol: Human Factor X (Sigma or Hematologic Technologies Inc.) was labeled with ^125 I using Iodogen (Pierce Chemical Co.) Human neutrophils were isolated from heparinized blood according to the manufacturer's specification using Neutrophil Isolation Medium (Cardinal Associates, Santa Fe, N.M.) and washed three times with 5 mM EDTA-phosphate-buffered saline (PBS), pH 7.2, at 4° C. To eliminate platelet contamination,neutrophils were incubated with autologous serum containing 5 mM EDTA for 30 mins. at 37° C., washed three times with ice-cold PBS, pH 7.2, and resuspended in RPMI 1640 tissue culture medium (Whittaker M. A. Bioproducts, Walkersville, Md.) at 4° C. Binding of ^125 I-Factor X to neutrophils was measured based on a method described by Altieri et al. (1991) Science 254: 1200-1202. Briefly, 200 μl of neutrophils (1.5×10^7 /ml) were supplemented with 17.5 μl of 50 mM CaCl2, stimulated with 3.5 μl of 100 μM NH2 -formyl-Met-Leu-Phe (Sigma), and mixed with 30 μl of 10.3 μg/ml ^125 I-Factor X and 100 μl of 1.75 mM of peptide. Buffer alone and a peptide of scrambled sequence served as controls in each of the 3 experiments. After incubation for 20 mins. at room temperature, neutrophil-bound ^125 I-Factor X was separated from unbound ^125 I-Factor X by centrifugation of 300 μl aliquots through 50 μl of a mixture of Hi phenyl silicone oil DC 550 and methyl silicone oil DC 200 5:1 (Nye Inc. Specialty Lubricants, New Bedford, Mass.) at 12,000×g for 2 mins. Aliquots of the supernatant (cell free ^125 I-Factor X) and the cell pellet (cell bound ^125 I-Factor X) were counted in a gamma-counter. Nonspecific binding (~50,000 cpm) was determined by adding a 100 fold excess of unlabeled Factor X, and subtracted from total radioactivity (~500,000 cpm for controls).

[2] = 50% rabbit plasma at 37° C.
Protocol: To determine the stability of the FHA II peptide, the unmodified or the acetylated-amidated peptide were incubated in 50% rabbit plasma at 37° C.

T1 sequence (P05107 23-769, other chains not shown): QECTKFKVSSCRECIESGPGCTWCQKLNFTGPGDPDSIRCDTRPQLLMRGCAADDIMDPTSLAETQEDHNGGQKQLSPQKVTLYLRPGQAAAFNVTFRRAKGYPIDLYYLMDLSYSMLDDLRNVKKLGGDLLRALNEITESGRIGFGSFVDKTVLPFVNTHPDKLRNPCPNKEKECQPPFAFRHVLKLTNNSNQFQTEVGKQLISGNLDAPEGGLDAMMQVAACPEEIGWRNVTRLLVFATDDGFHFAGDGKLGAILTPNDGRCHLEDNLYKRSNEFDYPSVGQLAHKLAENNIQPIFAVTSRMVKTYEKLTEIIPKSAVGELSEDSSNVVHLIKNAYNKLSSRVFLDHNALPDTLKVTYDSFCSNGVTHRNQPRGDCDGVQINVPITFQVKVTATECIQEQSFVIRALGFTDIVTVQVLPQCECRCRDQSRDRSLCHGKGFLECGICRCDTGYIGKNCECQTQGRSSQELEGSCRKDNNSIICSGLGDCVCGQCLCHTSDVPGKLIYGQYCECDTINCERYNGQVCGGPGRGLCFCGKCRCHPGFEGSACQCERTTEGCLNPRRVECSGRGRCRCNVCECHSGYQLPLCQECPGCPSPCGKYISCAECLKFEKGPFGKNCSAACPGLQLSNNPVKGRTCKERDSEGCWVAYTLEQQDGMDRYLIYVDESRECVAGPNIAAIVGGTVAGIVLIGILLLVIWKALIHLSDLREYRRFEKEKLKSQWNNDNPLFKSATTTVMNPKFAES

## CC(=O)N[C@@H](CC(C)C)C(=O)N[C@@H](CC(C)C)C(=O)N[C@H](C=O)CCCNC(=N)N [Leupeptin, reference compound]
THP-1 cells
  Clotting time: 63.0 ± 4.0 s
THP-1 cells; from standard curve
  Factor Xa: < 10.0 ng/mL

## AADPHQGVLAQGDIIMDAKG [FHA Cc]
CD11b/CD18
  reduction of binding of C3bi-coated erythrocytes to macrophages: no significant effect

## Ac-VEEDTKG-NH2 [scrambled ac/am FHA II, VEEDTKG, reference compound]
[1]; Experiment #3, 600 nmol
  BBB permeability: 7.74 ± 3.59%
[1]; Experiment #3, 600 nmol i.v., CSF 4 hours after LOS
  Leukocytosis: 14,287 ± 10,199 cells/ml

## ETKEVDG [FHA II, ETKEVDG]
Human neutrophils
  IC50: 10 µM
[2]
  time in which concentration decreased by half: 4 to 6 h

## GTLLLRNDALTENGTVTISA [FHA Cd]
CD11b/CD18
  reduction of binding of C3bi-coated erythrocytes to macrophages: no significant effect

## GYDTKQEDG [Factor X II, reference compound]
Human neutrophils
  IC50: 500 µM

## RADPHQGVLAQGDIIMDAKG [FHA Cb]
CD11b/CD18
  reduction of binding of C3bi-coated erythrocytes to macrophages: no significant effect

## RGDPHQGVLAQGDIIMDAKG [FHA Ca]
CD11b/CD18
  reduction of binding of C3bi-coated erythrocytes to macrophages: 61±7%
[1]; peripheral white blood cells
  neutropenia: No neutropenia was observed

— patent publication US5932217A, “Peptides which inhibit adhesion between leukocytes and endothelial cells” (priority 1994, dated 1999)
